The test system of assay [1] is HGC27 cells. Description: Annexin V-PE/7-AAD apoptosis assay (flow cytometry), HGC27. Type of assay: cell-based, human. Conditions: 1000 nM, 24 h. How it is done: (§1) Apoptosis was measured by staining with phycoerythrin (PE)-annexin V and 7-amino-actinomycin (7-AAD) (BD Biosciences, Erembodegem, Belgium) for 15 min at room temperature in the dark, followed by flow cytometry (BD Biosciences) within 1 h. Apoptosis was analyzed with FlowJo 7.6 software (FlowJo, LLC, Ashland, Oregon).
Supplementary file 12967_2017_1360_MOESM2_ESM.pdf: Additional file 2: Figure S2. Gimatecan induces apoptosis in HGC27 cell line. (A) Compared with irinotecan, gimatecan induced higher cell apoptosis in HGC27 cell. Cells were treated with gimatecan (0–1 µM) and irinotecan (0–1 µM) for 24 h and stained with Annexin V-PE/7-AAD. Sums of percentages of early apoptosis (Q3) and late apoptosis (Q2) were calculated as the total apoptosis ratios. (B) Pro- and anti-apoptotic proteins including Bcl-2, Bak, PARP and cleaved PARP were assessed by western-blotting in HGC27 cell. Western-blotting bands were quantified and normalized by ImageJ. All data are means ± SD of three independent experiments. *Compared with controls, p < 0.05; ns, p > 0.05.

In assay [2] the test system is NCI-N87 cells. Description: Annexin V-PE/7-AAD apoptosis assay (flow cytometry), NCI-N87. Conditions: 1000 nM, 24 h. Type of assay: cell-based, human. How it is done:
as §1
Cells were treated with gimatecan (0–1 µM) and irinotecan (0–1 µM) for 24 h and stained with Annexin V-PE/7-AAD. Sums of percentages of early apoptosis (Q3) and late apoptosis (Q2) were calculated as the total apoptosis ratios. c, d Pro- and anti-apoptotic proteins including Bcl-2, Bak, PARP and cleaved PARP were assessed by western-blotting in SNU-1 and NCI-N87 cells. Western-blotting bands were quantified and normalized by ImageJ. […] They are left out because no substance is present, and they are also barely readable.

Assay [3] deals with ABCG2. More on the design: method as in earlier work. Conditions: ref 32 (Marchetti et al., 2007); cited from earlier work.

For the molecule `CC[C@@]1(O)C(=O)OCc2c1cc1n(c2=O)Cc2c-1nc1ccccc1c2/C=N/OC(C)(C)C` [Gimatecan, 7-t-butoxyiminomethylcamptothecin], the “proportion of apoptotic cells” value came to 14.27 ± 1.69% in assay [1] and 12.29 ± 2.24% in assay [2]. For the same molecule, the “resistance resulting from ABCG2 expression” value in assay [3] is “eight to tenfold”.

These data come from publication PMC5729429, “Gimatecan exerts potent antitumor activity against gastric cancer in vitro and in vivo via AKT and MAPK signaling pathways” (Journal of Translational Medicine, 2017).
